10 compounds from patent US10532106B2 (priority 2014, dated 2020) can be followed below.

The target of this experiment is T1, MT1-MMP hemopexin domain (Homo sapiens, UniProt P50281).
T1 construct: residues Cys319-Gly511 from the human gene; His6 (N); made in house; host or cells: HEK293 (transient), pEXPR-IBA42 vector
Kind of experiment: Competition assay using fluorescence polarisation. It counts as binding. The settings on record: for Kd: read-out: Kd. The source says:
Here, a pre-formed complex of PEX with the fluorescent PEX-binding tracer is titrated with free, non-fluoresceinated bicyclic peptide. Since all 17-69-based peptides are expected to bind at the same site, the titrant will displace the fluorescent tracer from PEX. Dissociation of the complex can be measured quantitatively, and the Kd of the competitor (titrant) to the target protein determined. The advantage of the competition method is that the affinities of non-fluoresceinated bicyclic peptides can be determined accurately and rapidly.
Subsequently, the non-fluorescent competitor bicyclic peptide (usually just the bicycle core sequence) is titrated, such that it displaces the fluorescent tracer from the target protein. The displacement of the tracer is measured and associated with a drop in fluorescence polarisation. The drop in fluorescence polarisation is proportional to the fraction of target protein bound with the non-fluorescent titrant, and thus is a measure of the affinity of titrant to target protein.
The raw data is fit to the analytical solution of the cubic equation that describes the equilibria between fluorescent tracer, titrant, and binding protein. The fit requires the value of the affinity of fluorescent tracer to the target protein, which can be determined separately by direct binding FP experiments (see previous section).
A general note: Polarisation of emitted light reports the rotation of a fluorescent probe.

[1] abbreviates: Table 8, substitutions at position 4.

Read-outs that look alike come from different tables or passages of the source. Numbered stars: 1 amine (or outer) side, 2 acyl side, 3 side chain; on linkers, the order of the positions; unused ones are H or OH. Bridge positions count the residues as written; N and C are the ends. Square brackets hold non-standard residues; d marks the D form. Peptide text beside a SMILES is read from it. Phe(4-Br) = N[C@@H](Cc1ccc(Br)cc1)C(=O)O; 1Nal = N[C@@H](Cc1cccc2ccccc12)C(=O)O; 2Nal = N[C@@H](Cc1ccc2ccccc2c1)C(=O)O; TBMB = c1c(C[*:1])cc(C[*:3])cc1C[*:2]; Cha = N[C@@H](CC1CCCCC1)C(=O)O; Chg = N[C@H](C(=O)O)C1CCCCC1; Tle = CC(C)(C)[C@H](N)C(=O)O; Sar = CNCC(=O)O Where only a bound is given, the exact number is not on record here.

For orientation: Kd means the free concentration of one partner at which half of the binding sites on the other are occupied at equilibrium, for simple one-to-one binding. Take `CC[C@H](C)[C@@H]1NC(=O)[C@H](CC(=O)O)NC(=O)[C@H](Cc2ccc(O)cc2)NC(=O)[C@H](Cc2ccccc2)NC(=O)[C@H](CC(=O)O)NC(=O)[C@H](CCC(=O)O)NC(=O)[C@@H]2CSCc3cc(cc(c3)CSC[C@H](NC(=O)[C@H](C)NC(=O)CN3CCN(CC(=O)O)CCN(CC(=O)O)CCN(CC(=O)O)CC3)C(=O)N[C@@H](Cc3ccc(O)cc3)C(=O)N[C@@H](CC(N)=O)C(=O)N[C@@H](CCC(=O)O)C(=O)N[C@@H](Cc3ccccc3)C(=O)NCC(=O)N2)CSC[C@@H](C(N)=O)NC1=O` [17-69-07-N147, DOTA[Lu]-A-(17-69-07)]: the Kd (Table 15, DOTA-linked peptides) came to 0.95 ± 0.5 nM. Regarding `CC[C@H](C)[C@@H]1NC(=O)[C@H](CC(=O)O)NC(=O)[C@H](Cc2ccc(O)cc2)NC(=O)[C@H](Cc2ccccc2)NC(=O)[C@H](CC(=O)O)NC(=O)[C@H](CCC(=O)O)NC(=O)[C@@H]2CSCc3cc(cc(c3)CSC[C@H](NC(C)=O)C(=O)N[C@@H](Cc3ccc(O)cc3)C(=O)N[C@@H](CC(N)=O)C(=O)N[C@@H](CCC(=O)O)C(=O)N[C@@H](CC3CCCCC3)C(=O)NCC(=O)N2)CSC[C@@H](C(N)=O)NC1=O` [17-69-07-N139, Ac-(17-69-07) Cha4] (Ac-CYNE[Cha]GCEDFYDIC-NH2; linker 1-7-14 via TBMB), the Kd under setting [1] worked out at 362 nM. Consider `CC(=O)N[C@H]1CSCc2cc3cc(c2)CSC[C@H](NC(=O)CNC(=O)[C@H](Cc2ccccc2)NC(=O)[C@H](CCC(=O)O)NC(=O)[C@H](CC(N)=O)NC(=O)[C@H](Cc2ccc(O)cc2)NC1=O)C(=O)N[C@@H](CCC(=O)O)C(=O)N[C@@H](CC(=O)O)C(=O)N[C@@H](Cc1ccccc1)C(=O)N[C@@H](Cc1ccc(O)cc1)C(=O)N[C@@H](CC(=O)O)C(=O)N[C@@H](C(C)(C)C)C(=O)N[C@H](C(N)=O)CSC3` [17-69-07-N100, Ac-(17-69-07) tBuGly11] (Ac-CYNEFGCEDFYD[Tle]C-NH2; linker 1-7-14 via TBMB), for which the Kd (Table 9, tolerated substitutions at positions 9 and 11) amounted to 1.56 ± 1.14 nM. For the compound `CC[C@H](C)[C@@H]1NC(=O)[C@H](CC(=O)O)NC(=O)[C@H](Cc2ccc(O)cc2)NC(=O)[C@H](Cc2ccccc2)NC(=O)[C@H](CC(=O)O)NC(=O)[C@H](CCC(=O)O)NC(=O)[C@@H]2CSCc3cc(cc(c3)CSC[C@@H](C(=O)N[C@@H](C)C(N)=O)NC1=O)CSC[C@H](NC(=O)[C@H](C)N)C(=O)N[C@@H](C(C)C)C(=O)N[C@@H](CC(N)=O)C(=O)N[C@@H](CCC(=O)O)C(=O)N[C@@H](Cc1ccccc1)C(=O)NCC(=O)N2` [17-69-03-N001, A-(17-69-03)-A] (H-ACVNEFGCEDFYDICA-NH2; linker 2-8-15 via TBMB), the Kd (Table 2, FP method Competition, tracer A-(17-69-07)-A-Sar6-K(Fluorescein)) is 16.7 nM. Regarding `CC[C@H](C)[C@@H]1NC(=O)[C@H](CC(=O)O)NC(=O)[C@H](Cc2ccc(O)cc2)NC(=O)[C@H](Cc2ccccc2)NC(=O)[C@H](CC(=O)O)NC(=O)[C@H](CCC(=O)O)NC(=O)[C@@H]2CSCc3cc(cc(c3)CSC[C@H](NC(C)=O)C(=O)N[C@@H](Cc3ccc(O)cc3)C(=O)N[C@@H](CC(N)=O)C(=O)N[C@@H](CCC(=O)O)C(=O)N[C@@H](Cc3c[nH]c4ccccc34)C(=O)NCC(=O)N2)CSC[C@@H](C(N)=O)NC1=O` [17-69-44-N002, Ac-(17-69-07) Trp4] (Ac-CYNEWGCEDFYDIC-NH2; linker 1-7-14 via TBMB), under setting [1], the Kd was found to be 0.75 ± 0.23 nM.

In the case of `CC(=O)NCC(=O)N(C)CC(=O)N(C)CC(=O)N(C)CC(=O)N(C)CC(=O)N(C)CC(=O)N(C)CC(=O)N(C)CC(=O)N(C)CC(=O)N(C)CC(=O)N(C)CC(=O)N[C@@H](C)C(=O)N[C@H]1CSCc2cc3cc(c2)CSC[C@H](NC(=O)[C@@H](C)NC(=O)[C@H](Cc2cccc4ccccc24)NC(=O)[C@H](CCC(=O)O)NC(=O)[C@H](CC(N)=O)NC(=O)[C@@H](C)NC1=O)C(=O)N[C@@H](CCC(=O)O)C(=O)N[C@@H](CC(=O)O)C(=O)N[C@@H](Cc1ccccc1)C(=O)N[C@@H](Cc1ccc(O)cc1)C(=O)N[C@@H](CC(=O)O)C(=O)N[C@@H](C(C)(C)C)C(=O)N[C@H](C(N)=O)CSC3` [17-69-07-N239, Ac-G-Sar10-A-(17-69-07) D-Ala1 1Nal4 D-Ala5 tBuGly11] (Ac-G[Sar][Sar][Sar][Sar][Sar][Sar][Sar][Sar][Sar][Sar]AC[dA]NE[1Nal][dA]CEDFYD[Tle]C-NH2; linker 13-19-26 via TBMB), the “potency / activity toward MT1-MMP, in words” value is “potency which is superior to wildtype”. In addition, the Kd (Table 11, G-Sar10-A addition) was 0.94 ± 0.08 nM. Take `CC(=O)N[C@H]1CSCc2cc3cc(c2)CSC[C@H](NC(=O)[C@@H](C)NC(=O)[C@H](Cc2cccc4ccccc24)NC(=O)[C@H](CCC(=O)O)NC(=O)[C@H](CC(N)=O)NC(=O)[C@@H](C)NC1=O)C(=O)N[C@@H](CCC(=O)O)C(=O)N[C@@H](CC(=O)O)C(=O)N[C@@H](Cc1ccccc1)C(=O)N[C@@H](Cc1ccc(Br)cc1)C(=O)N[C@@H](CC(=O)O)C(=O)N[C@@H](C(C)(C)C)C(=O)N[C@H](C(N)=O)CSC3` [17-69-07-N252, Ac-(17-69-07) D-Ala1 1Nal4 D-Ala5 4BrPhe9 tBuGly11] (Ac-C[dA]NE[1Nal][dA]CEDF[Phe(4-Br)]D[Tle]C-NH2; linker 1-7-14 via TBMB): the “potency / activity toward MT1-MMP, in words” value is recorded as “potency which is superior to wildtype”. Further, the Kd (Table 10, multi-substitution) turned out to be 0.8 ± 0.39 nM. Consider `CC[C@H](C)[C@@H]1NC(=O)[C@H](CC(=O)O)NC(=O)[C@H](Cc2ccc(O)cc2)NC(=O)[C@H](Cc2ccccc2)NC(=O)[C@H](CC(=O)O)NC(=O)[C@H](CCC(=O)O)NC(=O)[C@@H]2CSCc3cc(cc(c3)CSC[C@H](NC(C)=O)C(=O)N[C@@H](Cc3ccc(O)cc3)C(=O)N[C@@H](CC(N)=O)C(=O)N[C@@H](CCC(=O)O)C(=O)N[C@@H](C3CCCCC3)C(=O)NCC(=O)N2)CSC[C@@H](C(N)=O)NC1=O` [17-69-07-N065, Ac-(17-69-07) Chg4] (Ac-CYNE[Chg]GCEDFYDIC-NH2; linker 1-7-14 via TBMB), for which, under setting [1], the Kd is greater than 5000 nM. Still for that read-out and setting: the figure for `CC[C@H](C)[C@@H]1NC(=O)[C@H](CC(=O)O)NC(=O)[C@H](Cc2ccc(O)cc2)NC(=O)[C@H](Cc2ccccc2)NC(=O)[C@H](CC(=O)O)NC(=O)[C@H](CCC(=O)O)NC(=O)[C@@H]2CSCc3cc(cc(c3)CSC[C@H](NC(C)=O)C(=O)N[C@@H](Cc3ccc(O)cc3)C(=O)N[C@@H](CC(N)=O)C(=O)N[C@@H](CCC(=O)O)C(=O)N[C@@H](Cc3ccc4ccccc4c3)C(=O)NCC(=O)N2)CSC[C@@H](C(N)=O)NC1=O` [17-69-07-N068, Ac-(17-69-07) 2NAl4] (Ac-CYNE[2Nal]GCEDFYDIC-NH2; linker 1-7-14 via TBMB) is 0.7 ± 0.19 nM. On to `CC[C@H](C)[C@@H]1NC(=O)[C@H](CC(=O)O)NC(=O)[C@H](Cc2ccc(O)cc2)NC(=O)[C@H](Cc2ccccc2)NC(=O)[C@H](CC(=O)O)NC(=O)[C@H](CCC(=O)O)NC(=O)[C@@H]2CSCc3cc(cc(c3)CSC[C@H](NC(=O)[C@H](C)NC(=O)CN(C)C(=O)CN(C)C(=O)CN(C)C(=O)CN(C)C(=O)CN(C)C(=O)CN(C)C(=O)CN(C)C(=O)CN(C)C(=O)CN(C)C(=O)CN(C)C(=O)CNC(C)=O)C(=O)N[C@@H](Cc3ccc(O)cc3)C(=O)N[C@@H](CC(N)=O)C(=O)N[C@@H](CCC(=O)O)C(=O)N[C@@H](Cc3ccccc3)C(=O)NCC(=O)N2)CSC[C@@H](C(N)=O)NC1=O` [17-69-07-N225, Ac-G-Sar10-A-(17-69-07)] (Ac-G[Sar][Sar][Sar][Sar][Sar][Sar][Sar][Sar][Sar][Sar]ACYNEFGCEDFYDIC-NH2; linker 13-19-26 via TBMB), for which the dissociation constant Kd (Table 11, G-Sar10-A addition) turned out to be 0.95 ± 0.1 nM.
